Experimental findings from article PMC10223454, “Functional Characterization of a New Degradation Peptide BmTX4-P1 from Traditional Chinese Scorpion Medicinal Material” (Toxins, 2023) are described below.

Peptide text beside a SMILES is read from it.

One data set has as its target T1, hKv1.2 channel (Homo sapiens, UniProt P16389).
T1 construct: expressed in transfected cells
As to the kind of experiment: whole-cell patch clamp, hKv1.2 channel currents. Format: cell-based. Particulars: for IC50: peak tail current, Hill equation fit. From the text:
(§1) The source of potassium channel plasmids was described in detail in previous articles. The cDNA encoding hKv1.1 channel, hKv1.3 channel, and rKv4.3 channel were subcloned into the vector of pCDNA3.1(+). The cDNA encoding hKv1.2 channel, hKv1.6 channel, hKv3.2 channel, hERG channel, and mKv4.1 channel were subcloned into the vector of pIRES2-EGFP. The cDNA encoding rKv4.2 was subcloned into the vector of pEGFP-N1.
(§2) DMEM (Gibco, Pittsburgh, PA, USA) with 10% fetal bovine serum and 1% penicillin/streptomycin was applied to culture HEK293T cells in an incubator with 5% CO2 at 37 °C. According to the manufacturer’s instructions, ExFect Transfection Reagent (Vazyme, Nanjing, China) was used to co-transfect the plasmids of pEGFP-N1 and potassium channels into HEK293T cells. Fluorescence-positive cells were selected for electrophysiological experiments after transfection for 12 h to 24 h.
(§3) Whole-cell channel currents were measured and recorded by an EPC-10 patch-clamp amplifier controlled by PatchMaster (HEKA Elektronik, Lambrecht, Germany). The internal patch pipette solution and bath solution were prepared according to the protocol in previously published references. Bath solution with 0.01% BSA (Gibco, Pittsburgh, PA, USA) was used to dissolve peptides for electrophysiological testing. The external recording bath solution was exchanged by the MPS-2 multichannel microperfusion system (INBIO Inc., Wuhan, China). The currents of different potassium channels were generated and recorded following the respective protocols according to previously published references. The results of the electrophysiological experiment are presented as the mean ± SE, and more than three cells from each sample were examined (n ≥ 3).
(§4) The software of Clampfit (Molecular Devices, Sunnyvale, CA, USA) and Sigmaplot (IBM SPSS, Chicago, IL, USA) were applied to analyze the electrophysiological data. In order to obtain IC50 values, the concentrations of peptides and currents of potassium channels were used to fit the modified Hill equation for dose–response relationships: Ipeptide/Icontrol = 1/[1 + Cpeptide/IC50], in which Ipeptide and Icontrol represent the peak tail current of potassium channels in the presence and absence of peptide, Cpeptide represents the concentration of peptides and IC50 represents the half-maximum inhibition concentration. The results are presented as the mean ± SE.
(In patch-clamp work, channel activity is measured electrically.)

For another data set, the target named is T2, hKv1.3 channel (Homo sapiens, UniProt P22001).
T2 construct: expressed in transfected cells
As to the kind of experiment: whole-cell patch clamp, hKv1.3 channel currents. Particulars: for IC50: peak tail current, Hill equation fit. Format: cell-based.
From the text: as §1, §2, §3, §4

A further data set has as its system hKv1.1 channel. The data set is described as follows: whole-cell patch clamp, hKv1.1 channel currents. It counts as cell-based, human. Particulars: 1 µM, n ≥ 3.
From the text: as §1, §2
(§5) Whole-cell channel currents were measured and recorded by an EPC-10 patch-clamp amplifier controlled by PatchMaster (HEKA Elektronik, Lambrecht, Germany). The internal patch pipette solution and bath solution were prepared according to the protocol in previously published references. […] The currents of different potassium channels were generated and recorded following the respective protocols according to previously published references. […]

The subject of the next data set is hKv3.2 channel. The data set is described as follows: whole-cell patch clamp, hKv3.2 channel currents. It counts as cell-based, human. Particulars: 1 µM, transiently transfected HEK293 cells, mean ± SE, n ≥ 3.
From the text: as §1, §2, §5

The subject of a further data set is rKv4.2 channel. As to the kind of experiment: whole-cell patch clamp, rKv4.2 channel currents. Conditions: 1 µM, transiently transfected HEK293 cells, mean ± SE, n ≥ 3. It counts as cell-based, rat.
From the text: as §1, §2, §5

The next data set deals with hERG channel. As to the kind of experiment: in vitro. It counts as cell-based. Conditions: human, whole-cell patch clamp, transiently transfected HEK293 cells, mean ± SE, n ≥ 3, read-out: inhibition of hERG channel currents.
From the text: as §1, §2, §5

For the next data set, the system named is rKv4.1 channel. The data set is described as follows: whole-cell patch clamp, rKv4.1 channel currents. It counts as cell-based, rat. Conditions: 1 µM, transiently transfected HEK293 cells, mean ± SE, n ≥ 3.
The next data set relates to hKv1.6 channel. The data set is described as follows: whole-cell patch clamp, hKv1.6 channel currents. Format: cell-based, human. Conditions: 1 µM, transiently transfected HEK293 cells, mean ± SE, n ≥ 3.
From the text: as §1, §2, §5

A further data set relates to mKv4.3 channel. As to the kind of experiment: whole-cell patch clamp, mKv4.3 channel currents. Format: cell-based, mouse. Particulars: 1 µM, transiently transfected HEK293 cells, mean ± SE, n ≥ 3.
Where [1] appears, read: 1 µM, transiently transfected HEK293 cells, mean ± SE, n ≥ 3.

T2 sequence (P22001 whole entry): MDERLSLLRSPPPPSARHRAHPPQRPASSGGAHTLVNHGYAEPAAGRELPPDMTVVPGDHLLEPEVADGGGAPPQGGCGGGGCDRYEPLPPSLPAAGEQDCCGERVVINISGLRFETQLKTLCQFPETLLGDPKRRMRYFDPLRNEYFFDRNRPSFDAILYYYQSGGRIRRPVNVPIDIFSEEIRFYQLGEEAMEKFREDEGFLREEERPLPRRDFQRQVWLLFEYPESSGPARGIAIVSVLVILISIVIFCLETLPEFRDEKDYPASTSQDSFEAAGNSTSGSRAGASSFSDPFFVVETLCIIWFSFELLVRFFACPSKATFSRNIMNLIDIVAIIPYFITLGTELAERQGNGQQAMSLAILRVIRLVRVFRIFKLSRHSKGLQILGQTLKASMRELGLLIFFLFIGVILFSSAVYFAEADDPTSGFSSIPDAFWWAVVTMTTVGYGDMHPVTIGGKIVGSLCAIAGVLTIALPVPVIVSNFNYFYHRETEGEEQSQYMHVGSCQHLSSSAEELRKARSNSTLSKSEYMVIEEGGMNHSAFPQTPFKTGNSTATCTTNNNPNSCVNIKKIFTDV
T1 sequence (P16389 whole entry): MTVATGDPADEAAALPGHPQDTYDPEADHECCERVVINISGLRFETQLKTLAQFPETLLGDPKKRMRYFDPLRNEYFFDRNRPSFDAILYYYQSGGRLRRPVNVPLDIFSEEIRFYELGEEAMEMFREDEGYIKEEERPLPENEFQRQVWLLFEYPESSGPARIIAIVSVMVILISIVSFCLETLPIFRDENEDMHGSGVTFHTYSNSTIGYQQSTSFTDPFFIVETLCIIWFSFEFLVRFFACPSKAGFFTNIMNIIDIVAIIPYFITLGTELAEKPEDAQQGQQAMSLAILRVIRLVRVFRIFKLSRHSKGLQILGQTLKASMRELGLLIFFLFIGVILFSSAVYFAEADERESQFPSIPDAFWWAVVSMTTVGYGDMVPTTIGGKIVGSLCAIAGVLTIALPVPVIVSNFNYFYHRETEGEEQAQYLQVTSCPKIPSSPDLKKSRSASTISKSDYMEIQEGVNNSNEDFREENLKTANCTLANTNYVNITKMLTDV

For orientation: IC50 means the concentration that gives 50% inhibition. For the molecule `CSCC[C@@H]1NC(=O)[C@@H]2CSSC[C@H](NC(=O)[C@@H](N)CCCCN)C(=O)N[C@@H]([C@@H](C)O)C(=O)N[C@@H](C)C(=O)N[C@@H](CO)C(=O)N[C@@H](CCCCN)C(=O)N[C@@H](CCC(N)=O)C(=O)N[C@H]3CSSC[C@H](NC(=O)[C@H](CCCCN)NC(=O)CNC(=O)[C@H](CC(N)=O)NC1=O)C(=O)N[C@@H](CCCNC(=N)N)C(=O)N[C@H](C(=O)N[C@@H](Cc1ccc(O)cc1)C(=O)O)CSSC[C@H](NC(=O)[C@H](C(C)C)NC(=O)[C@@H]1CCCN1C(=O)[C@H](Cc1c[nH]c4ccccc14)NC3=O)C(=O)N[C@@H](CCCCN)C(=O)N[C@@H](CCC(N)=O)C(=O)N[C@@H](CCSC)C(=O)N[C@@H](Cc1ccccc1)C(=O)NCC(=O)N[C@@H](CCCCN)C(=O)N1CCC[C@H]1C(=O)N[C@@H](CC(N)=O)C(=O)NCC(=O)N[C@@H](CCCCN)C(=O)N2` [rBmTX4-P1] (HELM PEPTIDE1{K.C.T.A.S.K.Q.C.W.P.V.C.K.Q.M.F.G.K.P.N.G.K.C.M.N.G.K.C.R.C.Y}$PEPTIDE1,PEPTIDE1,2:R3-23:R3|PEPTIDE1,PEPTIDE1,8:R3-28:R3|PEPTIDE1,PEPTIDE1,12:R3-30:R3$$$V2.0; C-terminus assumed; bridges inferred), the “inhibition of hKv1.2 channel current (in words)” value at hKv1.2 channel (1 µM) is “inhibited the currents of the hKv1.2 and hKv1.3 channels with high affinities”. Besides, the IC50 on hKv1.2 channel (mean ± SE, n ≥ 3) amounted to 45.7 ± 9.2 nM; on hKv1.3 channel (mean ± SE, n ≥ 3), 247 ± 47.9 nM. Besides, on hKv1.3 channel (1 µM), the “inhibition of hKv1.3 channel current (in words)” value is “inhibited the currents of the hKv1.2 and hKv1.3 channels with high affinities”. Further, the “effect on hKv1.1 channel current (in words)” value in the data set with hKv1.1 channel is given as “hardly inhibited the hKv1.1 channel current”.
The term inhibition denotes the percentage by which the read-out fell short of the control. Turning to `CSCC[C@@H]1NC(=O)[C@@H]2CSSC[C@H](NC(=O)[C@@H](N)CCCCN)C(=O)N[C@@H]([C@@H](C)O)C(=O)N[C@@H](C)C(=O)N[C@@H](CO)C(=O)N[C@@H](CCCCN)C(=O)N[C@@H](CCC(N)=O)C(=O)N[C@H]3CSSC[C@H](NC(=O)[C@H](CCCCN)NC(=O)CNC(=O)[C@H](CC(N)=O)NC1=O)C(=O)N[C@@H](CCCNC(=N)N)C(=O)N[C@H](C(=O)N[C@@H](Cc1ccc(O)cc1)C(=O)O)CSSC[C@H](NC(=O)[C@H](C(C)C)NC(=O)[C@@H]1CCCN1C(=O)[C@H](Cc1c[nH]c4ccccc14)NC3=O)C(=O)N[C@@H](CCCCN)C(=O)N[C@@H](CCC(N)=O)C(=O)N[C@@H](CCSC)C(=O)N[C@@H](Cc1ccccc1)C(=O)NCC(=O)N[C@@H](CCCCN)C(=O)N1CCC[C@H]1C(=O)N[C@@H](CC(N)=O)C(=O)NCC(=O)N[C@@H](CCCCN)C(=O)N2` [sBmTX4-P1] (HELM PEPTIDE1{K.C.T.A.S.K.Q.C.W.P.V.C.K.Q.M.F.G.K.P.N.G.K.C.M.N.G.K.C.R.C.Y}$PEPTIDE1,PEPTIDE1,2:R3-23:R3|PEPTIDE1,PEPTIDE1,8:R3-28:R3|PEPTIDE1,PEPTIDE1,12:R3-30:R3$$$V2.0; N-terminus and C-terminus assumed; bridges inferred), the “inhibition of hKv3.2 channel currents” value in the data set with hKv3.2 channel is on record as 5.3 ± 3.1%. Further, the “inhibition of rKv4.2 channel currents” value in the data set on rKv4.2 channel is 6.9 ± 4.6%. Moreover, the inhibition at 1 µM in the data set with hERG channel worked out at 35.7 ± 2.1%; on hKv1.2 channel (setting [1]), 88.4 ± 2%; at hKv1.3 channel (setting [1]), 73.1 ± 2.8%. For the same molecule, the inhibition at 0.008 µM at hKv1.2 channel (8 nM, mean ± SE, n ≥ 3, read-out: inhibition rate of hKv1.2 channel current) was 13.5 ± 1.6%; on hKv1.3 channel (8 nM, mean ± SE, n ≥ 3, read-out: inhibition rate of hKv1.3 channel current) it was 13.6 ± 3.7%. For the same molecule, the inhibition at 0.04 µM at hKv1.2 channel (40 nM, mean ± SE, n ≥ 3, read-out: inhibition rate of hKv1.2 channel current) is 40.2 ± 3.7%; at hKv1.3 channel (40 nM, mean ± SE, n ≥ 3, read-out: inhibition rate of hKv1.3 channel current), 32.6 ± 5.3%. Besides, the inhibition at 0.2 µM is 66 ± 6.3% at hKv1.2 channel (200 nM, mean ± SE, n ≥ 3, read-out: inhibition rate of hKv1.2 channel current) and 60.7 ± 2.9% on hKv1.3 channel (200 nM, mean ± SE, n ≥ 3, read-out: inhibition rate of hKv1.3 channel current). Also, the IC50 at hKv1.2 channel (mean ± SE, n ≥ 3) was found to be 74.7 ± 7 nM; at hKv1.3 channel (mean ± SE, n ≥ 3), 124 ± 26.7 nM. Moreover, the “inhibition of rKv4.1 channel currents” value with rKv4.1 channel is listed as 7.0 ± 1.8%. In addition, the “inhibition of hKv1.6 channel currents” value in the data set with hKv1.6 channel is 18.3 ± 4.3%. Also, the “inhibition of mKv4.3 channel currents” value in the data set with mKv4.3 channel is 6.8 ± 2.8%. For the same molecule, the “inhibition of hKv1.1 channel currents” value in the data set with hKv1.1 channel (transiently transfected HEK293 cells, mean ± SE) amounted to 5.9 ± 1.5%.
